# Laboratory results published in ChEMBL document CHEMBL5120753, “Isolation and biological activity of azocine and azocane alkaloids” (Bioorg Med Chem, 2022).
# Columns and labels:
# L1210 = test: Cytotoxicity against mouse L1210 cells assessed as cell growth inhibition; assay type: functional, cell-based
# [1] = molecular target: Cyclin-dependent kinase 4 (Homo sapiens, UniProt P11802); test: Inhibition of CDK4 (unknown origin)
# Corynebacterium xerosis = test: Antibacterial activity against Corynebacterium xerosis assessed as bacterial growth inhibition; assay type: functional
# [2] = system: Trichophyton mentagrophytes; test: […] activity against Trichophyton mentagrophytes assessed as […]; assay type: functional
# N2a = test: Neuroprotective activity against paraquat induced mouse Neuro2a cells assessed as reduction in cell viability at 1 uM pretreated for 1 hr followed by paraquat addition measured after 24 hrs by MTT method relative to control; assay type: functional; details: time 25 hrs
# B16 = test: Cytotoxicity against mouse B16 cells assessed as cell growth inhibition measured after 72 hrs by MTT assay; assay type: functional, cell-based; details: B16, 72 h
# [3] = Cytotoxicity against multidrug resistant human VJ300 cells expressing P-gp assessed as cell growth inhibition measured after 72 hrs by MTT assay; assay type: functional, cell-based; details: VJ-300, 72 h
# SAOS-2 = test: Cytotoxicity against human SAOS-2 cells assessed as cell growth inhibition incubated for 48 hrs by microplate reader based analysis; assay type: functional; details: SAOS-2, 48 h
# MG-63 = test: Cytotoxicity against human MG-63 cells assessed as cell growth inhibition incubated for 48 hrs by microplate reader based analysis; assay type: functional; details: MG-63, 48 h
# U2OS = test: Cytotoxicity against human U2OS cells assessed as cell growth inhibition incubated for 48 hrs by microplate reader based analysis; assay type: functional
# [4] = Cytotoxicity against human SOSP-9607 cells assessed as cell growth inhibition incubated for 48 hrs by microplate reader based analysis; assay type: functional; details: SOSP-9607, 48 h
# [5] = system: Mycobacterium tuberculosis; test: Antimycobacterial activity against Mycobacterium tuberculosis H37Rv assessed as inhibition of bacterial growth; assay type: functional
# KB = test: Cytotoxicity against human KB cells assessed as cell growth inhibition; assay type: functional, cell-based
# [6] = Toxicity in iv dosed Swiss-Webster mouse assessed as lethal dose at 7.5 ml/kg, iv administered through tail vein injection by Litchfield-Wilcoxon method; assay type: organism-based; details: in vivo
# HepG2 = test: Cytotoxicity against human HepG2 cells assessed as cell growth inhibition at 0.9 uM measured after 48 hrs by MTT assay relative to control; assay type: functional; parameters: scale not given: the % may be the effect or the level left
# SMMC-7721 = test: Cytotoxicity against human SMMC-7721 cells assessed as cell growth inhibition at 0.9 uM measured after 48 hrs by MTT assay relative to control; assay type: functional; parameters: scale not given: the % may be the effect or the level left
# MCF7 = test: Cytotoxicity against human MCF7 cells assessed as cell growth inhibition measured after 48 hrs by MTT assay; assay type: functional, cell-based; details: MCF7, 48 h
# [7] = Toxicity in iv dosed rat assessed as lethal dose; details: in vivo
# Cholinesterase = Cholinesterase (Homo sapiens, UniProt P06276); test: Inhibition of human BChE
# Plasmodium falciparum = test: Antimalarial activity against Plasmodium falciparum K1 infected in human RBC assessed as parasite growth inhibition measured after 48 hrs by optical microscopy; assay type: functional, organism-based; details: K1, Erythrocyte
# NIH3T3 = test: Cytotoxicity against mouse NIH3T3 cells assessed as cell growth inhibition incubated for 48 hrs by alamar blue dye-based fluorometric analysis; assay type: functional; details: NIH3T3, 48 h
# Staphylococcus aureus = test: Antibacterial activity against Staphylococcus aureus assessed as bacterial growth inhibition; assay type: functional
# Plasmodium berghei = test: Antiplasmodial activity against Plasmodium berghei infected in ip dosed Swiss albino mouse assessed as growth inhibition at asexual erythrocytic stage; assay type: functional; parameters: scale not given: the % may be the effect or the level left
# [8] = Antioxidant activity assessed as free radical scavenging activity incubated for 30 mins by DPPH assay; assay type: functional
# Proteus mirabilis = test: Antibacterial activity against Proteus mirabilis assessed as inhibition of bacterial growth incubated for 18 to 24 hrs; assay type: functional; details: time 18-24 hrs
# [9] = system: Staphylococcus epidermidis; test: Antibacterial activity against Staphylococcus epidermidis assessed as inhibition of bacterial growth incubated for 18 to 24 hrs; assay type: functional; details: time 18-24 hrs
# [10] = system: Lactiplantibacillus plantarum; test: Antibacterial activity against Lactobacillus plantarum assessed as inhibition of bacterial growth incubated for 18 to 24 hrs; assay type: functional; details: time 18-24 hrs
# [11] = Antagonist activity at alpha-adrenergic receptor in rat aortic strips assessed as receptor mediated adrenolytic activity; details: read-out: pA2 (converted)
# [12] = Antagonist activity at serotonin receptor in rat aortic strips assessed as receptor mediated anti-serotoninergic activity; details: read-out: pA2 (converted)
# Cholinesterase, sequence (P06276 whole entry): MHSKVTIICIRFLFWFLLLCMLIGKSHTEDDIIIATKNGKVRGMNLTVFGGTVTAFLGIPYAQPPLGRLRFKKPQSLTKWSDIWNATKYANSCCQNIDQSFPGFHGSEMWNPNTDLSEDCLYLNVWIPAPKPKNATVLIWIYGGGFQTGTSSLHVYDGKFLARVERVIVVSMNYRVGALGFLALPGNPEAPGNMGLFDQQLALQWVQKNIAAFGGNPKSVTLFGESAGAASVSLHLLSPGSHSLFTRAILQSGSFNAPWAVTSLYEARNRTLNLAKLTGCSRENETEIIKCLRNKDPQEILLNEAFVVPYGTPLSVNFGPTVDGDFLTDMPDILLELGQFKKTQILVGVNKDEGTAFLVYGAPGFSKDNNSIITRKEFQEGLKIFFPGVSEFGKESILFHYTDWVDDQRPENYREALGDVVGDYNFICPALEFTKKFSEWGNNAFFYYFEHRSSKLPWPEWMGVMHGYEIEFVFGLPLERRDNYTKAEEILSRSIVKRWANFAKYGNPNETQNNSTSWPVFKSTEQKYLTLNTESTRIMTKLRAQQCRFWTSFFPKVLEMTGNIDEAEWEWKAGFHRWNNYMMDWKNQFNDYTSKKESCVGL
# Cyclin-dependent kinase 4, sequence (P11802 whole entry): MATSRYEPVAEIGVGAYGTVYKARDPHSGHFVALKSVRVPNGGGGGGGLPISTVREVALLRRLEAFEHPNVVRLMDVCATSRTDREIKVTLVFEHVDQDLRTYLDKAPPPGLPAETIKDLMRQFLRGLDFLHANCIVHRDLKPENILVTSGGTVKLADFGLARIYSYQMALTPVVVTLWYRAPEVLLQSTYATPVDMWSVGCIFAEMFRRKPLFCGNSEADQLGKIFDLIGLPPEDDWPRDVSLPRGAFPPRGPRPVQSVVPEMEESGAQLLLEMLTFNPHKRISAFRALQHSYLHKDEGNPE
smiles,measurement,setting,value
C1=C\CCc2cc3c(o2)[C@@H]2N4CCCC/C=C\[C@H]4C[C@@]24CN(CCCC/1)CC[C@@H]34,IC50,L1210,1.3 µg/mL
same,IC50,[1],25.2 µM
same,MIC,Corynebacterium xerosis,11 µg/mL
same,MIC,[2],23 µg/mL
CC1(C)/C=C\N2C(=O)C3(O)C(O)CCN3C(=O)[C@@H]2Cc2c1[nH]c1ccccc21 (stereo partly specified),Activity,N2a,38.6%
C=C1C=C[C@@]23CC[C@@]45C(C2)[C@]4(CCN13)c1cc(OC)ccc1N5C(=O)OC,IC50,B16,2.8 µg/mL
same,IC50,[3],4.6 µg/mL
COC(=O)C1=C2Nc3c(OC)cccc3[C@]23CC[N+]2(C)C[C@H](C(C)=O)[C@H]1C[C@H]32 (stereo partly specified),IC50,SAOS-2,9.2 µM
same,IC50,MG-63,9.2 µM
same,IC50,U2OS,9.2 µM
same,IC50,[4],9.2 µM
CC1(C)/C=C\N2C(=O)[C@]3(O)[C@H](O)CCN3C(=O)[C@@H]2Cc2c1[nH]c1ccccc21,Activity,N2a,36.5%
CO[C@H]1/C=C/O[C@@]2(C)Oc3c(C)c(O)c4c(O)c(c(/C=N/N5CCN(C)CC5)c(O)c4c3C2=O)NC(=O)/C(C)=C\C=C\[C@H](C)[C@H](O)[C@@H](C)[C@@H](O)[C@@H](C)[C@H](OC(C)=O)[C@@H]1C [RIFAMPIN],MIC50,[5],0.5 µg/mL
CC1CC2C[C@]34C(=O)CCCN3CCC[C@@]2(O)C(=O)C14 (stereo partly specified),IC50,KB,> 10 µg/mL
same,IC50,L1210,> 10 µg/mL
COc1cc2c(cc1OC)[C@@]13CCN4CC5=CCO[C@H]6CC(=O)N2[C@H]1[C@H]6[C@H]5C[C@H]43 [BRUCINE],LD50,[6],12 mg/kg
same,Activity,HepG2,78.3%
same,Activity,SMMC-7721,92.3%
same,IC50,MCF7,279 µM
O=C1C[C@@H]2OCC=C3CN4CC[C@]56c7ccccc7N1[C@H]5[C@H]2[C@H]3C[C@H]46 [STRYCHNINE],LD50,[7],0.96 mg/kg
COC(=O)[C@]12COCC[C@@H]3[C@H](c4c1[nH]c1ccccc41)N(C)CC[C@@H]32 [UNDULIFOLINE],IC50,Cholinesterase,28.5 µM
CC[C@@H]1C2CCN(C)C1c1c([nH]c3ccc(OC)cc13)C2=O (stereo partly specified),IC50,Plasmodium falciparum,16.7 µM
same,IC50,NIH3T3,> 50 µg/mL
O[C@]12C=C(c3nccc4c3[nH]c3ccccc34)[C@@H]3CCN(CCCC/C=C\CC1)C[C@@]31C[C@@H]3/C=C\CCCCN3[C@H]12 [MANZAMINE A],MIC,Staphylococcus aureus,6.3 µg/mL
same,Activity,Plasmodium berghei,90%
same,MIC50,[5],1.5 µg/mL
C=C1CC[C@@]23CC[C@@]45C(C2)[C@]4(CCN13)c1cc(OC)ccc1N5C(=O)OC,IC50,B16,7.2 µg/mL
same,IC50,[3],4.6 µg/mL
COc1cc([C@H]2Oc3ccc4[nH]cc5c4c3[C@H]2C(=O)NCC5)ccc1O,IC50,[8],3.2 10^-3mg/ml
same,MIC,Proteus mirabilis,1 µg/mL
same,MIC,[9],10 µg/mL
same,MIC,[10],1 µg/mL
O=CC1=C[C@@]2(O)CC/C=C\CCCCN3CC[C@@H]1[C@]1(C[C@@H]4/C=C\CCCCN4[C@H]12)C3 [IRCINAL],IC50,KB,4.8 µg/mL
same,IC50,L1210,1.4 µg/mL
COc1cc2c(cc1OC)-c1ccccc1CCN(C)C2,Kb,[11],0.107 µM
same,Kb,[12],0.102 µM
